From PubChem BioAssay (NCI)
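Where inhibition never reached the appropriate level, the endpoint shown equals the highest concentration tested. Otherwise, values were interpolated linearly from a five-concentration, 48-hour dose response in 96-well plates. Definition used: TGI = concentration required for complete inhibition of growth.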

Columns and labels:
Test in all cases: inhibition of tumour cell growth, NCI panel, 48 h
U251 CNS = system: U251 CNS
MOLT-4 leukemia = system: MOLT-4 leukemia
HCT-15 colon = system: HCT-15 colon
IGROV1 ovarian = system: IGROV1 ovarian
SK-MEL-5 melanoma = system: SK-MEL-5 melanoma
HS 578T breast = system: HS 578T breast
MDA-MB-435 = system: MDA-MB-435
UACC-62 melanoma = system: UACC-62 melanoma
BT-549 breast = system: BT-549 breast
RXF 393 renal = system: RXF 393 renal
786-0 renal = system: 786-0 renal
SF-539 CNS = system: SF-539 CNS
HOP-62 NSCLC = system: HOP-62 NSCLC
PC-3 prostate = system: PC-3 prostate
OVCAR-5 ovarian = system: OVCAR-5 ovarian
NCI-H226 lung = system: NCI-H226 lung
T-47D breast = system: T-47D breast
MALME-3M melanoma = system: MALME-3M melanoma
SW-620 colon = system: SW-620 colon
SNB-19 CNS = system: SNB-19 CNS
MDA-MB-231 breast = system: MDA-MB-231 breast
NCI-H522 lung = system: NCI-H522 lung
ACHN renal = system: ACHN renal
OVCAR-8 ovarian = system: OVCAR-8 ovarian
HT29 colon = system: HT29 colon
SF-295 CNS = system: SF-295 CNS
HCT-116 colon = system: HCT-116 colon
A498 renal = system: A498 renal
UO-31 renal = system: UO-31 renal
M14 melanoma = system: M14 melanoma
HOP-92 NSCLC = system: HOP-92 NSCLC
NCI/ADR-RES ovarian = system: NCI/ADR-RES ovarian
MCF7 breast = system: MCF7 breast
TK-10 renal = system: TK-10 renal
EKVX NSCLC = system: EKVX NSCLC
OVCAR-4 ovarian = system: OVCAR-4 ovarian
UACC-257 melanoma = system: UACC-257 melanoma
OVCAR-3 ovarian = system: OVCAR-3 ovarian
LOX IMVI melanoma = system: LOX IMVI melanoma
HCC-2998 colon = system: HCC-2998 colon
A549 NSCLC = system: A549 NSCLC
SF-268 CNS = system: SF-268 CNS
SNB-75 CNS = system: SNB-75 CNS
SK-MEL-2 melanoma = system: SK-MEL-2 melanoma
SK-OV-3 ovarian = system: SK-OV-3 ovarian
COLO 205 colon = system: COLO 205 colon
K-562 leukemia = system: K-562 leukemia
SR leukemia = system: SR leukemia
NCI-H460 lung = system: NCI-H460 lung
CAKI-1 renal = system: CAKI-1 renal
NCI-H23 lung = system: NCI-H23 lung
RPMI-8226 leukemia = system: RPMI-8226 leukemia
KM12 colon = system: KM12 colon
SK-MEL-28 melanoma = system: SK-MEL-28 melanoma
DU-145 prostate = system: DU-145 prostate
SN12C renal = system: SN12C renal
MDA-N = system: MDA-N
HL-60(TB) leukemia = system: HL-60(TB) leukemia
CCRF-CEM leukemia = system: CCRF-CEM leukemia

Compound: Cc1cccc2c(N)c3cccc(C(=O)NCC[N+](C)(C)Cc4ccccc4[N+](=O)[O-])c3nc12
- TGI (U251 CNS): > 27.6 µM
- TGI (MOLT-4 leukemia): 9.34 µM
- TGI (HCT-15 colon): > 100 µM
- TGI (IGROV1 ovarian): > 100 µM
- TGI (SK-MEL-5 melanoma): > 41.1 µM
- TGI (HS 578T breast): > 31.2 µM
- TGI (MDA-MB-435): > 46.9 µM
- TGI (UACC-62 melanoma): > 19.7 µM
- TGI (BT-549 breast): > 39 µM
- TGI (RXF 393 renal): > 37.7 µM
- TGI (786-0 renal): 12.7 µM
- TGI (SF-539 CNS): > 32.5 µM
- TGI (HOP-62 NSCLC): > 41.4 µM
- TGI (PC-3 prostate): 45.2 µM
- TGI (OVCAR-5 ovarian): 60.2 µM
- TGI (NCI-H226 lung): > 100 µM
- TGI (T-47D breast): > 100 µM
- TGI (MALME-3M melanoma): 25.8 µM
- TGI (SW-620 colon): > 53 µM
- TGI (SNB-19 CNS): > 100 µM
- TGI (MDA-MB-231 breast): > 55.6 µM
- TGI (NCI-H522 lung): 18.5 µM
- TGI (ACHN renal): 13.9 µM
- TGI (OVCAR-8 ovarian): > 30.7 µM
- TGI (HT29 colon): 19.8 µM
- TGI (SF-295 CNS): > 50.1 µM
- TGI (HCT-116 colon): > 100 µM
- TGI (A498 renal): > 29.3 µM
- TGI (UO-31 renal): > 28.3 µM
- TGI (M14 melanoma): > 40.3 µM
- TGI (HOP-92 NSCLC): 49.5 µM
- TGI (NCI/ADR-RES ovarian): > 37.1 µM
- TGI (MCF7 breast): > 100 µM
- TGI (TK-10 renal): > 20 µM
- TGI (EKVX NSCLC): > 100 µM
- TGI (OVCAR-4 ovarian): > 34.5 µM
- TGI (UACC-257 melanoma): > 70.7 µM
- TGI (OVCAR-3 ovarian): > 91.4 µM
- TGI (LOX IMVI melanoma): > 100 µM
- TGI (HCC-2998 colon): > 25.9 µM
- TGI (A549 NSCLC): > 54.5 µM
- TGI (SF-268 CNS): > 35.2 µM
- TGI (SNB-75 CNS): 8.82 µM
- TGI (SK-MEL-2 melanoma): > 54.6 µM
- TGI (SK-OV-3 ovarian): > 95.1 µM
- TGI (COLO 205 colon): > 39.7 µM
- TGI (K-562 leukemia): > 31.8 µM
- TGI (SR leukemia): 2.09 µM
- TGI (NCI-H460 lung): 16 µM
- TGI (CAKI-1 renal): > 100 µM
- TGI (NCI-H23 lung): 14.1 µM
- TGI (RPMI-8226 leukemia): > 58.3 µM
- TGI (KM12 colon): > 100 µM
- TGI (SK-MEL-28 melanoma): > 71.1 µM
- TGI (DU-145 prostate): > 100 µM
- TGI (SN12C renal): > 39.9 µM
- TGI (MDA-N): > 41.4 µM

Compound: COC(=O)CN(CC(=O)NCCNC(=O)OC(C)(C)C)C1CCCCC1N(CC(=O)OC)CC(=O)OC (stereo unspecified)
- TGI (U251 CNS): > 100 µM
- TGI (MOLT-4 leukemia): > 100 µM
- TGI (HCT-15 colon): > 100 µM
- TGI (IGROV1 ovarian): > 100 µM
- TGI (SK-MEL-5 melanoma): > 100 µM
- TGI (HS 578T breast): > 100 µM
- TGI (MDA-MB-435): > 100 µM
- TGI (UACC-62 melanoma): > 100 µM
- TGI (BT-549 breast): > 100 µM
- TGI (786-0 renal): > 100 µM
- TGI (SF-539 CNS): > 100 µM
- TGI (HOP-62 NSCLC): > 100 µM
- TGI (PC-3 prostate): > 100 µM
- TGI (OVCAR-5 ovarian): > 100 µM
- TGI (NCI-H226 lung): > 100 µM
- TGI (T-47D breast): > 100 µM
- TGI (MALME-3M melanoma): > 100 µM
- TGI (SW-620 colon): > 100 µM
- TGI (SNB-19 CNS): > 100 µM
- TGI (MDA-MB-231 breast): > 100 µM
- TGI (NCI-H522 lung): > 100 µM
- TGI (ACHN renal): > 100 µM
- TGI (OVCAR-8 ovarian): > 100 µM
- TGI (HT29 colon): > 100 µM
- TGI (SF-295 CNS): > 100 µM
- TGI (HCT-116 colon): > 100 µM
- TGI (HL-60(TB) leukemia): > 100 µM
- TGI (A498 renal): > 100 µM
- TGI (UO-31 renal): > 100 µM
- TGI (NCI/ADR-RES ovarian): > 100 µM
- TGI (MCF7 breast): > 100 µM
- TGI (TK-10 renal): > 100 µM
- TGI (CCRF-CEM leukemia): > 100 µM
- TGI (EKVX NSCLC): > 100 µM
- TGI (UACC-257 melanoma): > 100 µM
- TGI (OVCAR-3 ovarian): > 100 µM
- TGI (LOX IMVI melanoma): > 100 µM
- TGI (HCC-2998 colon): > 100 µM
- TGI (A549 NSCLC): > 100 µM
- TGI (SF-268 CNS): > 100 µM
- TGI (SK-MEL-2 melanoma): > 100 µM
- TGI (SK-OV-3 ovarian): > 100 µM
- TGI (COLO 205 colon): > 100 µM
- TGI (K-562 leukemia): > 100 µM
- TGI (SR leukemia): > 100 µM
- TGI (NCI-H460 lung): > 100 µM
- TGI (CAKI-1 renal): > 100 µM
- TGI (NCI-H23 lung): > 100 µM
- TGI (RPMI-8226 leukemia): > 100 µM
- TGI (KM12 colon): > 100 µM
- TGI (SK-MEL-28 melanoma): > 100 µM
- TGI (DU-145 prostate): > 100 µM
- TGI (SN12C renal): > 100 µM
- TGI (MDA-N): > 100 µM
